Legend:
[1] = molecular target: Beta-1 adrenergic receptor (Homo sapiens, UniProt P08588); experiment: DRUGMATRIX: Adrenergic beta1 radioligand binding (ligand: [125I] Cyanopindolol); format: cell membranes, CHO-K1, Membrane; conditions: cho-k1; Not Active = under 50% inhibition at 10 µM
[2] = molecular target: T1, Vasoactive intestinal polypeptide receptor 1 (Homo sapiens, UniProt P32241); format: cell membranes, Membrane; conditions: ht-29; further: in other assays of this panel Not Active means under 50% inhibition at 10 µM
T1 sequence (P32241 whole entry): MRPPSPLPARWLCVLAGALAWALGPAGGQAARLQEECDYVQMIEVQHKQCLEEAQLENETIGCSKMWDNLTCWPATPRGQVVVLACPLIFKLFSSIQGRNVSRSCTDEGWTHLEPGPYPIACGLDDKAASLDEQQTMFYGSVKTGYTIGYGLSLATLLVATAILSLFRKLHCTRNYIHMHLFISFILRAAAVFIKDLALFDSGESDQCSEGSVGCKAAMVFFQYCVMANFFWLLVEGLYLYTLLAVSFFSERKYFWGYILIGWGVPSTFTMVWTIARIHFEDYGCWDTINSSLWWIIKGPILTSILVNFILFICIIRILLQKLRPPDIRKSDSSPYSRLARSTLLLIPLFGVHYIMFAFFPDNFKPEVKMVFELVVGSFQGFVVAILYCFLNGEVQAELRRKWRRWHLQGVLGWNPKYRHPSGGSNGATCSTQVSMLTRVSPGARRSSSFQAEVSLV

Cannabinoid receptor 1 = Cannabinoid receptor 1 (Homo sapiens, UniProt P21554); format: cell membranes, Membrane; conditions: chem-1; further: in other assays of this panel Not Active means under 50% inhibition at 10 µM
Cannabinoid receptor 1, sequence (P21554 whole entry): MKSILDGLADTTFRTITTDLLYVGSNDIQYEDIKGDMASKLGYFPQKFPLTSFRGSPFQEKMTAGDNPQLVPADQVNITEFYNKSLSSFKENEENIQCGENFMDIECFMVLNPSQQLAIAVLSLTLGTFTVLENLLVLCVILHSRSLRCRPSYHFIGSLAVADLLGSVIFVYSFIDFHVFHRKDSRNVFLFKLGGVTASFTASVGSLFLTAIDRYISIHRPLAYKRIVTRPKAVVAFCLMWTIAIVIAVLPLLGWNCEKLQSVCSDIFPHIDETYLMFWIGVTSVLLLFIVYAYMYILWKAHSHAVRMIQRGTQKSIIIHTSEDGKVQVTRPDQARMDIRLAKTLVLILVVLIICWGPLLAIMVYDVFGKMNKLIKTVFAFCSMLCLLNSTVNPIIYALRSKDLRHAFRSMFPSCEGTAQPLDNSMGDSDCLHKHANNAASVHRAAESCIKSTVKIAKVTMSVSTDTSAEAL

[3] = molecular target: C-C chemokine receptor type 5 (Homo sapiens, UniProt P51681); format: cell membranes, Membrane; conditions: hek293; further: in other assays of this panel Not Active means under 50% inhibition at 10 µM
C-C chemokine receptor type 5, sequence (P51681 whole entry): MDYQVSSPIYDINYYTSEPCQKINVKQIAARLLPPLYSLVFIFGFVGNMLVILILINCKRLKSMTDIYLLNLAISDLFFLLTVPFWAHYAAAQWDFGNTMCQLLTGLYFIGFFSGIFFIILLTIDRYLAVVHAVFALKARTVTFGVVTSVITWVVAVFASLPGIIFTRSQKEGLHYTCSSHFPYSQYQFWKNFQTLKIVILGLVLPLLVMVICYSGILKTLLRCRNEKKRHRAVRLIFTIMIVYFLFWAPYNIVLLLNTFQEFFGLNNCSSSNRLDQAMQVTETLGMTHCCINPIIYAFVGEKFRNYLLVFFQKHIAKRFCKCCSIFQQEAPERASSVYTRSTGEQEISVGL

[4] = DRUGMATRIX: GABAA, Flunitrazepam, Central radioligand binding (ligand: [3H] Flunitrazepam); format: cell membranes, Rattus norvegicus, Wistar, Brain, Membrane; conditions: Not Active = under 50% inhibition at 10 µM
[5] = DRUGMATRIX: Phosphodiesterase PDE3 enzyme inhibition (substrate: [3H]cAMP + cAMP); format: tissue-based, Homo sapiens; conditions: platelet; Not Active = under 50% inhibition at 10 µM
[6] = molecular target: Epidermal growth factor receptor (Homo sapiens, UniProt P00533); experiment: DRUGMATRIX: Protein Tyrosine Kinase, EGF Receptor enzyme inhibition (substrate: Poly(Glu:Tyr)); format: cell-based, Insect cells; conditions: Not Active = under 50% inhibition at 10 µM
Epidermal growth factor receptor, sequence (P00533 whole entry): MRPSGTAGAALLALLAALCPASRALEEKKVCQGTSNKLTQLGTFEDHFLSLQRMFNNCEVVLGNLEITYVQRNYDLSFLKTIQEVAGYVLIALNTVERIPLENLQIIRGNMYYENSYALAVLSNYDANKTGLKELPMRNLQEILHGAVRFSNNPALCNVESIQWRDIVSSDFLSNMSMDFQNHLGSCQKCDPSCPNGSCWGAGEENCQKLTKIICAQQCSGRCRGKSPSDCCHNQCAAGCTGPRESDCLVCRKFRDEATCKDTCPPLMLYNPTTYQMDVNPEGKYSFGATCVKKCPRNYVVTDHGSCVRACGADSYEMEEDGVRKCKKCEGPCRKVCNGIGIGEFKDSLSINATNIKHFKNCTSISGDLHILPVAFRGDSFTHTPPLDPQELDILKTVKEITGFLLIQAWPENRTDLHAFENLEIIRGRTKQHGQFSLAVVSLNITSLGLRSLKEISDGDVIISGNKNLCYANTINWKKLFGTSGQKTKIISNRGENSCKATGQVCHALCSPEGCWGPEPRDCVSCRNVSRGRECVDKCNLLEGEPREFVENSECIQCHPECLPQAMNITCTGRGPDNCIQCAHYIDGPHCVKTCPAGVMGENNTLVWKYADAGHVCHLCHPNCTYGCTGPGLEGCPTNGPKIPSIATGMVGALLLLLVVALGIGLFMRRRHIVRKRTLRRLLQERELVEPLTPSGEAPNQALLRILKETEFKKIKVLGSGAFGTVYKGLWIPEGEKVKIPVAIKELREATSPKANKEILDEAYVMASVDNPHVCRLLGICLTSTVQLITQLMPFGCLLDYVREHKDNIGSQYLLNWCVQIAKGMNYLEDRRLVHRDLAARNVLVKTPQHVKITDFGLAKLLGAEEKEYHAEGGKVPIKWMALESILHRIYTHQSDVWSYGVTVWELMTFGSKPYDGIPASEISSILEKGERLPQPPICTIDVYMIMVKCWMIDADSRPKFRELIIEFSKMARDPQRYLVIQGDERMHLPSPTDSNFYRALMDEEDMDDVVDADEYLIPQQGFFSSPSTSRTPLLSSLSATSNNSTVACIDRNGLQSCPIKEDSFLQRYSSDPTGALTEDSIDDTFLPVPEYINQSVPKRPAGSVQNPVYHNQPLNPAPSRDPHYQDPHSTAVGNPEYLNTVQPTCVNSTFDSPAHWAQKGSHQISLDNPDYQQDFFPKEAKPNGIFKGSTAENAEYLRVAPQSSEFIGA

Cytochrome P450 3A4 = Cytochrome P450 3A4 (Homo sapiens, UniProt P08684); conditions: bti-tn-5b1-4; further: in other assays of this panel Not Active means under 50% inhibition at 10 µM
Cytochrome P450 3A4, sequence (P08684 whole entry): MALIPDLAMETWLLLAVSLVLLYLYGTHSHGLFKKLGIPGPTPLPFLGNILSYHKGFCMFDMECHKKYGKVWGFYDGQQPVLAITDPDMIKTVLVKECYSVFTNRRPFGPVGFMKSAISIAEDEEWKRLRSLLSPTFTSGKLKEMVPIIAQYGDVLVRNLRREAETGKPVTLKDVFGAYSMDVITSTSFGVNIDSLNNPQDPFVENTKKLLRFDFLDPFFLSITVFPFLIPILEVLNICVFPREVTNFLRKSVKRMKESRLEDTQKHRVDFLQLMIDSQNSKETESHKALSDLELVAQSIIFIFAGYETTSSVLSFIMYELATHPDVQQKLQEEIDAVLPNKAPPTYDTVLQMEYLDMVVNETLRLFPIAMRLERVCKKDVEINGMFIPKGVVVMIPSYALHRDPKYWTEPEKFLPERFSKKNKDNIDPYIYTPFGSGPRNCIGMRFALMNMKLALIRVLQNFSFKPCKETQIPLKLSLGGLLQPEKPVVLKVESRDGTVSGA

Beta-1 adrenergic receptor, sequence (P08588 whole entry): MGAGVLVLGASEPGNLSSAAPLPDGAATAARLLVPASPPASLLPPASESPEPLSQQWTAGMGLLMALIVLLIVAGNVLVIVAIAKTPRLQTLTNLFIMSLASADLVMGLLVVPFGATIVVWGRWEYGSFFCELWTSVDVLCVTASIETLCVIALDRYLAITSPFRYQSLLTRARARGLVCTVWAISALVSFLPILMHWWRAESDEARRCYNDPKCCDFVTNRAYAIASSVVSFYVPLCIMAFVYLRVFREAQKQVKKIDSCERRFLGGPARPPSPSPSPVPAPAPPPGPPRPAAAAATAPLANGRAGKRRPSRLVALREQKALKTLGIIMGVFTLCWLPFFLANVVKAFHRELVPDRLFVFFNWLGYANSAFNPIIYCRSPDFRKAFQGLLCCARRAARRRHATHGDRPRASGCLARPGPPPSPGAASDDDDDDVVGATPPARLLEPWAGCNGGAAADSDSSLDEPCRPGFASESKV

Compound | IC50 [1] | IC50 [2] | IC50 (Cannabinoid receptor 1) | IC50 [3] | IC50 [4] | Ki [4] | IC50 [5] | Ki [5] | IC50 ([6]; insect cells) | IC50 (Cytochrome P450 3A4) | Ki (Cytochrome P450 3A4) | IC50 ([6]; read-out: IC50) [µM]
O=c1[nH]c(=O)n([C@H]2C[C@H](O)[C@@H](CO)O2)cc1I [IDOXURIDINE] | Not Active | Not Active | Not Active | Not Active | Not Active | Not Active | Not Active | Not Active | Not Active | Not Active | Not Active | –
CC1Cc2ccccc2N1NC(=O)c1ccc(Cl)c(S(N)(=O)=O)c1 (stereo unspecified) [INDAPAMIDE] | Not Active | Not Active | Not Active | Not Active | Not Active | Not Active | Not Active | Not Active | Not Active | Not Active | Not Active | –
CCCCN1CCCC[C@H]1C(=O)Nc1c(C)cccc1C [LEVOBUPIVACAINE] | Not Active | Not Active | Not Active | Not Active | Not Active | Not Active | Not Active | Not Active | Not Active | Not Active | Not Active | –
CCCCc1nc(Cl)c(CO)n1Cc1ccc(-c2ccccc2-c2nnn[nH]2)cc1 [LOSARTAN] | Not Active | Not Active | Not Active | Not Active | Not Active | Not Active | Not Active | Not Active | Not Active | Not Active | Not Active | –
Sc1ncnc2nc[nH]c12 [MERCAPTOPURINE ANHYDROUS] | Not Active | Not Active | Not Active | Not Active | Not Active | Not Active | Not Active | Not Active | Not Active | Not Active | Not Active | –
C[C@](N)(Cc1ccc(O)c(O)c1)C(=O)O [METHYLDOPA] | Not Active | Not Active | Not Active | Not Active | Not Active | Not Active | Not Active | Not Active | – | Not Active | Not Active | 5.23
C[C@]12CCC(=O)C=C1CC[C@@H]1[C@@H]2CC[C@@]2(C)[C@H]1CC[C@]2(C)O [METHYLTESTOSTERONE] | Not Active | Not Active | Not Active | Not Active | Not Active | Not Active | Not Active | Not Active | Not Active | Not Active | Not Active | –
Cc1ccccc1N1C(=O)c2cc(S(N)(=O)=O)c(Cl)cc2NC1C (stereo unspecified) [METOLAZONE] | Not Active | Not Active | Not Active | Not Active | Not Active | Not Active | Not Active | Not Active | Not Active | Not Active | Not Active | –
CCn1cc(C(=O)O)c(=O)c2cc(F)c(N3CCNCC3)cc21 [NORFLOXACIN] | Not Active | Not Active | Not Active | Not Active | Not Active | Not Active | Not Active | Not Active | Not Active | Not Active | Not Active | –
NC1=NC(=O)C(c2ccccc2)O1 (stereo unspecified) [PEMOLINE] | Not Active | Not Active | Not Active | Not Active | Not Active | Not Active | Not Active | Not Active | Not Active | Not Active | Not Active | –
Nc1nc2c(ncn2CCC(CO)CO)c(=O)[nH]1 [PENCICLOVIR] | Not Active | Not Active | Not Active | Not Active | Not Active | Not Active | Not Active | Not Active | Not Active | Not Active | Not Active | –
